Measurements from patent publication US12391737B2, “Soluble NPY2 receptor agonists” (Boehringer Ingelheim International GmbH, priority 2020, dated 2025).
*1 amine or outer side, *2 acyl side, *3 side chain or, on linkers, in order; H or OH if unused. Side-chain parts run from the residue outwards. The star is where a group is joined. C18 diacid = O=C(O)CCCCCCCCCCCCCCCCC(=O)*; γGlu = O=C(O)[C@H](CCC(=O)[*:2])N[*:1]; Isovaleryl = CC(C)CC(=O)*; Ahx = NCCCCCC(=O)O

T1: human NPY1 receptor (hY1R) (Homo sapiens, UniProt P25929)
T1 construct: expressed in transfected cells; host or cells: CHO-K1
T1 sequence (P25929 1-384): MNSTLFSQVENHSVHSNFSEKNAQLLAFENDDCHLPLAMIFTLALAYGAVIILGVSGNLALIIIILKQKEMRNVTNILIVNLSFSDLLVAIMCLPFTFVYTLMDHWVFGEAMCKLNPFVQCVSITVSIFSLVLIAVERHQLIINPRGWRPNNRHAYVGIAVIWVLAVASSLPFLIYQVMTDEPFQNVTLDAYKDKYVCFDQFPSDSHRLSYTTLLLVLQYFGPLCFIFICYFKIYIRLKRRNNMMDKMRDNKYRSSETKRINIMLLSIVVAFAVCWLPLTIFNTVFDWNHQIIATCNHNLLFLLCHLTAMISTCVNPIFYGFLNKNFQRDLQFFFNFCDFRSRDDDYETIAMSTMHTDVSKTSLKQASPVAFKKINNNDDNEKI

T2: Human Neuropeptide Y2 Receptor (Homo sapiens, UniProt P49146)
T2 construct: purchased CHEMICON HTS066M
T2 sequence (P49146 1-381): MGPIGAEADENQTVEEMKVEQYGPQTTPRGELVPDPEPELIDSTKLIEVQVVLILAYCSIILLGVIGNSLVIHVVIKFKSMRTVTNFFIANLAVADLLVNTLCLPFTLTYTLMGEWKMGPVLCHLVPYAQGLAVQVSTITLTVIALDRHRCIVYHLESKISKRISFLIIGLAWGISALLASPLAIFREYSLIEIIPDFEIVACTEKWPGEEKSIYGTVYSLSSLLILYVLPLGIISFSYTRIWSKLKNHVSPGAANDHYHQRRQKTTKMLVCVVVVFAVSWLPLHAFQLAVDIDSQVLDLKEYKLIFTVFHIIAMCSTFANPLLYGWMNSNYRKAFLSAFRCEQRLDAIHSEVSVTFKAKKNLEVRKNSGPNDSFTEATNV

T3: human NPY5 receptor (hY5R) (Homo sapiens, UniProt Q15761)
T3 sequence (Q15761 1-445): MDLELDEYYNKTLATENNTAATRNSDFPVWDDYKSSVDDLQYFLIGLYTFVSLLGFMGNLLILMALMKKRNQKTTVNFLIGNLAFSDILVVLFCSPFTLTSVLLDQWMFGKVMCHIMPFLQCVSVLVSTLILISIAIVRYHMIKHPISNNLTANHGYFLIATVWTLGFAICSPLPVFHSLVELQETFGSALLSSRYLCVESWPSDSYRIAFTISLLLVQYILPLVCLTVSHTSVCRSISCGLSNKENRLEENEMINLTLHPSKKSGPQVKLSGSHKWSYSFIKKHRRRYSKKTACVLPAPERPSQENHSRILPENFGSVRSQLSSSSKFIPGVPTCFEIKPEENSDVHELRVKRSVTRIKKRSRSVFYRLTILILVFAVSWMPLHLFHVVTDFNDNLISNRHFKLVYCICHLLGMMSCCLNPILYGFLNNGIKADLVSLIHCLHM

T4: human NPY2 receptor (NPY2R) (human, UniProt P49146)
T4 chain: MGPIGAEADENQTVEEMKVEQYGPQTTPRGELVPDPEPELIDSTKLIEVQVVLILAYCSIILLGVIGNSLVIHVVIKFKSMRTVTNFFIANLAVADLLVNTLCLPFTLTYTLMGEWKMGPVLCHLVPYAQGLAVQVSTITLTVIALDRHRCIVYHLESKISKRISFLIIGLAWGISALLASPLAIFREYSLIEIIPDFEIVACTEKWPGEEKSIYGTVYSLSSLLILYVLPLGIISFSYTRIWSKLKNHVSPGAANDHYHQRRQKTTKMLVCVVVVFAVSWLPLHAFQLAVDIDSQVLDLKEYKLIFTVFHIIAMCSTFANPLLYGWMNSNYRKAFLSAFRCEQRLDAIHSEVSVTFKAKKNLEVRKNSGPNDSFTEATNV


What was measured:
[1] = target: T1, human NPY1 receptor (hY1R); assay: HTRF cAMP Gi assay, hY1R; assay type: cell-based; conditions: CHO-K1 cells
Experimental: Briefly, the production of intracellular cAMP will generate a competition between unlabeled cAMP and exogenously added d2-cAMP for anti-cAMP antibodies conjugated to cryptate. CHO-K1 cells stably expressing the human NPY1, NPY2, NPY4 and NPY5 receptors were used with the cells brought to life from a frozen stock immediately before assay performance. 2000 cells per well were applied for all four NPY receptor subtype assays. A 384-well format was used applying a total volume of 20 μl using 5 μl cells, 2.5 μl peptide agonist, 2.5 μl forskolin and 5 μl of each of the fluorophores. […] Concentration-response evaluation of compounds was performed with 11 concentrations of agonist peptides (covering 3 decades). EC50 values were calculated by nonlinear regression using sigmoid concentration-response with variable slope.

[2] = target: T2, Human Neuropeptide Y2 Receptor; assay: Activity (RLB binding) after incubation in solutions at different pH values; conditions: apparent Ki of filtrate after incubation at pH8.1-8.2, assumed 10 mg/ml; read-out: RLB 8 (pH8.1-8.2)
Experimental: The filtration RLB assay was carried out in 96-well plates in a final volume of 100 μl per well. Freeze-dried test peptides were dissolved in 100% dimethyl sulfoxide (DMSO) to stock solutions of 1 mM and serial dilutions were performed in assay buffer (50 mM HEPES, 5 mM MgCl2, 1 mM CaCl2, pH 7.4) containing 0.2% ovalbumin. […] Next, 80 μL membranes (HTS066M, ChemiSCREEN™ Human Neuropeptide Y2 Receptor Membrane Preparation, CHEMICON) were added to each well to give a final protein concentration of 0.5 μg/well. The plates were sealed and incubated at room temperature for 2 hours in a plate shaker set at 400 rpm. The incubation was stopped by vacuum filtration onto 0.5% polyethylene amine (PE) presoaked GF/C filters using a 96-well FilterMate™ harvester (Perkin Elmer) followed by four washes with 300 μl/well ice-cold wash buffer (50 mM HEPES, 500 mM NaCl, pH7.4). Filter plates were then dried for 60 min at room temperature and the bottom of the plates was sealed with backing tape UniFilter-96. Finally, 50 μl/well scintillation counter cocktail (Microscint20, Packard) was added and the radioactivity was counted in the Packard TopCount NXT scintillation counter. IC50 values (the half maximal inhibitory concentration of the agonist) were calculated by nonlinear regression analysis of sigmoidal dose-response curves.
The peptide was (partially) dissolved by shaking the filter unit horizontally at approx. 400 rpm for 2 hours at room temperature. The sample was filtered to remove any insoluble particles.

[3] = target: T5, human NPY4 receptor (hY4R) (Homo sapiens, UniProt P50391); assay: HTRF cAMP Gi assay, hY4R; assay type: cell-based; conditions: CHO-K1 cells
T5 construct: expressed in transfected cells; host or cells: CHO-K1
T5 sequence (P50391 whole entry): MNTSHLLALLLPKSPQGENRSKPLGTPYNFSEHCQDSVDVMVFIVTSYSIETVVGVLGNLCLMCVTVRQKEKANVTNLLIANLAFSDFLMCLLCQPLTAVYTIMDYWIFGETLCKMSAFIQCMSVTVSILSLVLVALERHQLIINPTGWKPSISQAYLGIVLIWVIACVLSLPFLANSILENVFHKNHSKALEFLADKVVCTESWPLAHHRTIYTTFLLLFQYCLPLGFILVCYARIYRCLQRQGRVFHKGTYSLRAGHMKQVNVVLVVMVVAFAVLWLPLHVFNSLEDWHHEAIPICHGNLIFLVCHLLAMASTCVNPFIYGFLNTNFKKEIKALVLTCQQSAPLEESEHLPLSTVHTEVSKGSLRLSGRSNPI

NMRI mice = assay: Effect on acute food intake in normal NMRI mice; assay type: in vivo; conditions: 5 nmol/kg subcutaneously once
Experimental: Male NMRI mice were obtained from Charles River (Charles River, Research Models & Services Germany GmbH) or from JanVier (JanVier Labs, France) at 5 weeks of age. […] Room temperature was controlled to 21° C.±1° C., with 60%±20% humidity.
Animals were transferred 5-7 days before the start of the study to a real-time food intake monitoring system, HM-2 system (MBRose, Denmark), to allow acclimatization to experimental conditions. As the animals were uniquely identified with microchips, each individual animal was identified by its microchip upon entry and exit from the food channel. Randomization of the mice for each study group (n=7-8) was based on body weight measured the day before the start of the study. A vehicle-treated (50 mM phosphate buffer pH7 with 5% Mannitol) group was included in each experiment. Six hours before the start of the night phase animals were fasted. One hour before the dark phase animals were dosed once subcutaneously (5 nmol/kg) with test peptide. […] The food intake of the treated groups was normalized (in %) to the average food intake of the group receiving vehicle (Table 7). Statistical significance was evaluated using One-way analysis of variance with Turkey's multiple comparison test. P<0.05 was considered statistically significant.

[4] = target: T3, human NPY5 receptor (hY5R); assay: HTRF cAMP Gi assay, hY5R
Solubility determination = conditions: for Sol6: pH 6; for Sol7: pH 7
In short: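 First, TFA-salt peptide was added to 0.1 M sodium diphosphate (pH 6.4 or 7.0) to 10 mg/ml and shaken 2 h at room temperature. Next, insoluble material was filtered off. Finally, filtrate and control, each 1 mg/ml in 50% acetonitrile, were compared by reversed-phase chromatography.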

[5] = target: T2, Human Neuropeptide Y2 Receptor; assay: Radioligand binding competition assay (RLB); conditions: Table 3, 125I-PYY(1-36) competition; read-out: Ki
In short: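 Filtration competition binding on membranes from cells expressing the receptor, 0.5 μg protein/well, in 50 mM HEPES, 5 mM MgCl2, 1 mM CaCl2, pH 7.4, with 0.2% ovalbumin. Incubation ran 2 h at room temperature, followed by GF/C filtration and scintillation counting. IC50 came from nonlinear sigmoidal fits.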

[6] = target: T4, human NPY2 receptor (NPY2R); assay: competition

EC50 [1] | Ki [2] | EC50 [3] | EC50 [4] | Sol6 (Solubility determination) | Sol7 (Solubility determination) | Ki [5] | Ki [6] | Molecule | Acute Food Intake 24 h [% vehicle] (NMRI mice)
> 5000 nM | 3.1 nM | > 5000 nM | > 5000 nM | 8.9 mg/mL | 9.2 mg/mL | 1.04 nM |  | CC[C@H](C)[C@H](NC(=O)[C@H](CCC(=O)O)NC(=O)[C@H](CCC(=O)O)NC(=O)[C@@H]1CCCN1C(=O)[C@@H](NC(=O)[C@H](C)NC(=O)[C@H](CC(=O)O)NC(=O)[C@H](C)NC(=O)[C@H](CCC(=O)O)NC(=O)[C@@H]1CCCN1C(=O)[C@H](CCCCNC(=O)CCCCCNC(=O)CC[C@H](NC(=O)CCCCCCCCCCCCCCCCC(=O)O)C(=O)O)NC(=O)[C@H](CCC(=O)O)NC(=O)[C@@H]1CCCN1C(=O)[C@H](C)NC(=O)CC(C)C)[C@@H](C)O)C(=O)N[C@@H](CCC(N)=O)C(=O)N[C@@H](CCCNC(=N)N)C(=O)N[C@@H](Cc1ccc(O)cc1)C(=O)N[C@@H](Cc1ccc(O)cc1)C(=O)N[C@H](C(=O)N[C@@H](CO)C(=O)N[C@@H](CC(C)C)C(=O)N[C@@H](CCCNC(=N)N)C(=O)N[C@@H](Cc1c[nH]cn1)C(=O)N[C@@H](Cc1ccc(O)cc1)C(=O)N[C@@H](Cc1ccc(O)cc1)C(=O)N[C@@H](CC(N)=O)C(=O)N[C@@H](Cc1c[nH]c2ccccc12)C(=O)N[C@@H](CC(C)C)C(=O)N[C@H](C(=O)N[C@@H](CCCNC(=N)N)C(=O)N[C@@H](CCC(N)=O)C(=O)N[C@@H](CCCNC(=N)N)C(=O)N[C@@H](Cc1ccc(O)cc1)C(N)=O)[C@@H](C)O)C(C)C [Compound 7, N{alpha-4}-(3-methylbutanoyl)-N{epsilon-7}-(6-[(4S)-4-carboxy-4-(17-carboxyheptadecanamido)butanamido]hexanoyl)[4A,7K,9E,10A,13T,17I,18Q,22V,28Y,30W,31L]-hPYY(4-36)] | 38 % vehicle
 |  |  | > 5000 nM | 9.2 mg/mL | 9.1 mg/mL | 5.64 nM |  | CC(C)CC(=O)N[C@@H](C)C(=O)N1CCC[C@H]1C(=O)N[C@@H](C)C(=O)N[C@@H](CCCCNC(=O)CCCCCNC(=O)CC[C@H](NC(=O)CCCCCCCCCCCCCCCCC(=O)O)C(=O)O)C(=O)N1CCC[C@H]1C(=O)N[C@@H](CCC(=O)O)C(=O)N[C@@H](CCC(=O)O)C(=O)N[C@@H](CC(=O)O)C(=O)N[C@@H](C)C(=O)N[C@H](C(=O)N1CCC[C@H]1C(=O)N[C@@H](CCC(=O)O)C(=O)N[C@@H](CCC(=O)O)C(=O)N[C@@H](CC(C)C)C(=O)N[C@@H](CCC(N)=O)C(=O)N[C@@H](CCCNC(=N)N)C(=O)N[C@@H](Cc1ccc(O)cc1)C(=O)N[C@@H](Cc1ccc(O)cc1)C(=O)N[C@H](C(=O)N[C@@H](CO)C(=O)N[C@@H](CC(C)C)C(=O)N[C@@H](CCCNC(=N)N)C(=O)N[C@@H](Cc1c[nH]cn1)C(=O)N[C@@H](Cc1ccc(O)cc1)C(=O)N[C@@H](Cc1ccc(O)cc1)C(=O)N[C@@H](CC(N)=O)C(=O)N[C@@H](Cc1c[nH]c2ccccc12)C(=O)N[C@@H](CC(C)C)C(=O)N[C@H](C(=O)N[C@@H](CCCNC(=N)N)C(=O)N[C@@H](CCC(N)=O)C(=O)N[C@@H](CCCNC(=N)N)C(=O)N[C@@H](Cc1ccc(O)cc1)C(N)=O)[C@@H](C)O)C(C)C)[C@@H](C)O [Compound 26, N{alpha-4}-(3-methylbutanoyl)-N{epsilon-7}-(6-[(4S)-4-carboxy-4-(17-carboxyheptadecanamido)butanamido]hexanoyl)[4A,6A,7K,9E,13T,18Q,22V,28Y,30W,31L]-hPYY(4-36)] | 53 % vehicle
 |  |  |  |  |  |  | 2.73 nM | Isovaleryl-APEK([Ahx-γGlu-C18 diacid])PEAEASPEELQRYYVSLRHYYNWLTRQRY-NH2 [Compound 122] | 
